Measured values from PubChem BioAssay (NCI).
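The concentration for 50% growth inhibition is given as GI50. The concentration for full growth arrest is given as TGI.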

Tests used:
Assay in all cases: growth of human tumour cells (NCI), 384-well format; in the data active = GI50 below about 0.43 µM; inactive = the rest
RPMI-8226 leukemia = system: RPMI-8226 leukemia
MCF7 breast = system: MCF7 breast
MDA-MB-231 breast = system: MDA-MB-231 breast
TK-10 renal = system: TK-10 renal
SR leukemia = system: SR leukemia
MOLT-4 leukemia = system: MOLT-4 leukemia
OVCAR-3 ovarian = system: OVCAR-3 ovarian
SK-MEL-28 melanoma = system: SK-MEL-28 melanoma
HT29 colon = system: HT29 colon
SN12C renal = system: SN12C renal
MDA-MB-435 melanoma = system: MDA-MB-435 melanoma
OVCAR-8 ovarian = system: OVCAR-8 ovarian
HL-60(TB) leukemia = system: HL-60(TB) leukemia
HS 578T breast = system: HS 578T breast
BT-549 breast = system: BT-549 breast
NCI/ADR-RES ovarian = system: NCI/ADR-RES ovarian
KM12 colon = system: KM12 colon
SF-295 CNS = system: SF-295 CNS
UO-31 renal = system: UO-31 renal
NCI-H460 NSCLC = system: NCI-H460 NSCLC
PC-3 prostate = system: PC-3 prostate
RXF 393 renal = system: RXF 393 renal
NCI-H322M lung = system: NCI-H322M lung
LOX IMVI melanoma = system: LOX IMVI melanoma
NCI-H23 lung = system: NCI-H23 lung
OVCAR-4 ovarian = system: OVCAR-4 ovarian
SNB-75 CNS = system: SNB-75 CNS
A498 renal = system: A498 renal
A549 NSCLC = system: A549 NSCLC
MDA-MB-468 breast = system: MDA-MB-468 breast
HCT-15 colon = system: HCT-15 colon
HCC-2998 colon = system: HCC-2998 colon
M14 melanoma = system: M14 melanoma
EKVX NSCLC = system: EKVX NSCLC
COLO 205 colon = system: COLO 205 colon
SF-268 CNS = system: SF-268 CNS
CCRF-CEM leukemia = system: CCRF-CEM leukemia
NCI-H522 lung = system: NCI-H522 lung
HOP-62 NSCLC = system: HOP-62 NSCLC
SK-OV-3 ovarian = system: SK-OV-3 ovarian
MALME-3M melanoma = system: MALME-3M melanoma
SK-MEL-5 melanoma = system: SK-MEL-5 melanoma
ACHN renal = system: ACHN renal
IGROV1 ovarian = system: IGROV1 ovarian
K-562 leukemia = system: K-562 leukemia
SF-539 CNS = system: SF-539 CNS
T-47D breast = system: T-47D breast
NCI-H226 lung = system: NCI-H226 lung
DU-145 prostate = system: DU-145 prostate
786-0 renal = system: 786-0 renal
HOP-92 NSCLC = system: HOP-92 NSCLC
UACC-62 melanoma = system: UACC-62 melanoma
OVCAR-5 ovarian = system: OVCAR-5 ovarian
SNB-19 CNS = system: SNB-19 CNS
CAKI-1 renal = system: CAKI-1 renal
SW-620 colon = system: SW-620 colon
UACC-257 melanoma = system: UACC-257 melanoma

CCC(CC)n1cnc2c(-c3cnc(N)cn3)nc(N3CC4CCC(C3)O4)nc21
4.61 µM: TGI (UACC-62 melanoma)
39.1 µM: TGI (HOP-62 NSCLC)
1.17 µM: TGI (SR leukemia)
0.431 µM: TGI (T-47D breast)
9.92 µM: TGI (EKVX NSCLC)
1.61 µM: TGI (SK-MEL-5 melanoma)
7.84 µM: TGI (SNB-75 CNS)
10.5 µM: TGI (MOLT-4 leukemia)
8.87 µM: TGI (LOX IMVI melanoma)
> 100 µM: TGI (MDA-MB-231 breast) | TGI (TK-10 renal) | TGI (OVCAR-3 ovarian) | TGI (HT29 colon) | TGI (SN12C renal) | TGI (OVCAR-8 ovarian) | TGI (HL-60(TB) leukemia) | TGI (NCI/ADR-RES ovarian) | TGI (KM12 colon) | TGI (UO-31 renal) | TGI (NCI-H460 NSCLC) | TGI (PC-3 prostate) | TGI (RXF 393 renal) | TGI (NCI-H322M lung) | TGI (NCI-H23 lung) | TGI (A549 NSCLC) | TGI (HCT-15 colon) | TGI (HCC-2998 colon) | TGI (M14 melanoma) | TGI (COLO 205 colon) | TGI (SF-268 CNS) | TGI (NCI-H522 lung) | TGI (ACHN renal) | TGI (K-562 leukemia) | TGI (SF-539 CNS) | TGI (DU-145 prostate) | TGI (786-0 renal) | TGI (OVCAR-5 ovarian) | TGI (SNB-19 CNS) | TGI (SW-620 colon) | TGI (UACC-257 melanoma)
39.9 µM: TGI (MDA-MB-435 melanoma)
0.927 µM: TGI (HS 578T breast)
6.52 µM: TGI (NCI-H226 lung)
0.151 µM: TGI (RPMI-8226 leukemia)
1.2 µM: TGI (MDA-MB-468 breast)
3.79 µM: TGI (OVCAR-4 ovarian)
inactive: GI50 (MDA-MB-231 breast) 0.68 µM | GI50 (TK-10 renal) 1.39 µM | GI50 (OVCAR-3 ovarian) 0.901 µM | GI50 (HT29 colon) 2.53 µM | GI50 (SN12C renal) 0.433 µM | GI50 (MDA-MB-435 melanoma) 1.58 µM | GI50 (OVCAR-8 ovarian) 1.75 µM | GI50 (HL-60(TB) leukemia) 44.5 µM | GI50 (BT-549 breast) 1.06 µM | GI50 (NCI/ADR-RES ovarian) 2.77 µM | GI50 (KM12 colon) 0.508 µM | GI50 (UO-31 renal) 3.03 µM | GI50 (RXF 393 renal) 1.29 µM | GI50 (LOX IMVI melanoma) 1.08 µM | GI50 (NCI-H23 lung) 1.27 µM | GI50 (OVCAR-4 ovarian) 0.635 µM | GI50 (HCT-15 colon) 0.566 µM | GI50 (HCC-2998 colon) 10.5 µM | GI50 (M14 melanoma) 0.493 µM | GI50 (EKVX NSCLC) 0.977 µM | GI50 (SF-268 CNS) 2.57 µM | GI50 (HOP-62 NSCLC) 1.01 µM | GI50 (ACHN renal) 0.523 µM | GI50 (K-562 leukemia) 1.68 µM | GI50 (SF-539 CNS) 1.63 µM | GI50 (NCI-H226 lung) 0.54 µM | GI50 (DU-145 prostate) 2.03 µM | GI50 ([…]-0 renal) 2.75 µM | GI50 (OVCAR-5 ovarian) 0.685 µM | GI50 (SNB-19 CNS) 8.09 µM | GI50 (CAKI-1 renal) 0.775 µM | GI50 (SW-620 colon) 3.46 µM | GI50 (UACC-257 melanoma) 2.37 µM
0.531 µM: TGI (MALME-3M melanoma)
5.22 µM: TGI (BT-549 breast)
5.19 µM: TGI (SK-OV-3 ovarian)
80.3 µM: TGI (MCF7 breast)
1.32 µM: TGI (A498 renal)
45.8 µM: TGI (CAKI-1 renal)
14 µM: TGI (CCRF-CEM leukemia)
active: GI50 (RPMI-8226 leukemia) 0.029 µM | GI50 (MCF7 breast) 0.184 µM | GI50 (SR leukemia) 0.189 µM | GI50 (MOLT-4 leukemia) 0.375 µM | GI50 (SK-MEL-28 melanoma) 0.309 µM | GI50 (HS 578T breast) 0.205 µM | GI50 (SF-295 CNS) 0.267 µM | GI50 (NCI-H460 NSCLC) 0.187 µM | GI50 (PC-3 prostate) 0.348 µM | GI50 (NCI-H322M lung) 0.394 µM | GI50 (SNB-75 CNS) 0.312 µM | GI50 (A498 renal) 0.173 µM | GI50 (A549 NSCLC) 0.418 µM | GI50 (MDA-MB-468 breast) 0.375 µM | GI50 (COLO 205 colon) 0.425 µM | GI50 (CCRF-CEM leukemia) 0.358 µM | GI50 (NCI-H522 lung) 0.314 µM | GI50 (SK-OV-3 ovarian) 0.4 µM | GI50 (MALME-3M melanoma) 0.0694 µM | GI50 (SK-MEL-5 melanoma) 0.288 µM | GI50 (IGROV1 ovarian) 0.229 µM | GI50 (T-47D breast) 0.0669 µM | GI50 (HOP-92 NSCLC) 0.298 µM | GI50 (UACC-62 melanoma) 0.416 µM
4.96 µM: TGI (HOP-92 NSCLC)
2.28 µM: TGI (SF-295 CNS)
0.894 µM: TGI (IGROV1 ovarian)
5.99 µM: TGI (SK-MEL-28 melanoma)
